Experimental data taken from patent publication US11427553B2, “Dihydrooxadiazinones” (Bayer Aktiengesellschaft, priority 2017, dated 2022).

tested on: HeLa cells; experiment: Assay 1 cell proliferation measurement (CTG, 72 h), HeLa; format: cell-based, human; settings: Homo sapiens, HeLa; Assay 1, 72 h, Cell Titer Glo; read-out: HeLa IC50 [nM] (Cervical cancer)
Experimental: Cell Proliferation Measurement
The antiproliferative activity of the compounds of the general formula (I) was examined in vitro in human cancer cells. For this purpose, the appropriate number of cells (Hela: 800; SK-MEL-3: 1000; A549: 800) were plated in 384-well plates with appropriate growth medium ((A549: DMEM/Ham's F12 (Biochrom; #FG 4815 with stabile Glutamine), FCS 10% final (Biochrom; #S 0415); Hela: DMEM/Ham's F12 (Biochrom; #FG 4815 with stabile Glutamine), FCS 10% final (Biochrom; #S 0415); SK-MEL-3: McCoy's 5A (Biochrom; #F 1015), FCS 10% final (Biochrom; #S 0415), L-Alanyl-L-Glutamine final: 2 mM, (Biochrom; #K 0302)) and incubated at 37° C. overnight. After 24 h, cells on one plate (0 h plate) were treated with 30 μl/cavity of CTG solution (Promega Cell Titer Glo (catalogue #G755B and G756B)) and incubated at room temperature for 10 min, and luminescence was measured by means of a VICTOR V (Perkin Elmer), in order to determine cell viability on commencement of treatment. The cells on the test plate were treated with the compounds of the general formula (I) as and incubated at 37° C. for 72 h. The compounds were added to the cells by means of an HP D300 digital dispenser in a 10-step 2.5-fold dilution series generally starting at a maximum final drug concentration of 100 nM. As control, the cells were treated with vehicle (DMSO at 0.3% final concentration). After 72 h, the cells were treated with 30 μl/cavity of CTG solution (Promega Cell Titer Glo (catalogue #G755B and G756B)) and incubated at room temperature for 10 min. and luminescence was measured by means of a VICTOR V (Perkin Elmer), in order to determine cell viability at the end of treatment. The percentage effect on cell growth and the IC50 derived therefrom were determined for each test substance using the values from the 0 h plate […] and the DMSO control […]. The IC50 values were calculated using a 4-parameter fit.

Structure (SMILES) | IC50
CC1CC(Nc2ccc(C3=NNC(=O)OC3)cc2C(F)(F)F)CCN1 (stereo not drawn) [Example 311, 5-{4-[(2-methylpiperidin-4-yl)amino]-3-(trifluoromethyl)phenyl}-3,6-dihydro-2H-1,3,4-oxadiazin-2-one] | > 100 nM
CC1CN(C)CCN(c2ccc(C3=NNC(=O)OC3)cc2C(F)(F)F)C1 (stereo not drawn) [Example 302, 5-[4-(4,6-dimethyl-1,4-diazepan-1-yl)-3-(trifluoromethyl)phenyl]-3,6-dihydro-2H-1,3,4-oxadiazin-2-one] | > 100 nM
CN1CCC(Nc2ccc(C3=NNC(=O)OC3)cc2C(F)(F)F)CC1 [Example 309, 5-{4-[(1-methylpiperidin-4-yl)amino]-3-(trifluoromethyl)phenyl}-3,6-dihydro-2H-1,3,4-oxadiazin-2-one] | > 100 nM
CN1CCCC1CCNc1ccc(C2=NNC(=O)OC2)cc1C(F)(F)F (stereo not drawn) [Example 318, 5-[4-{[2-(1-methylpyrrolidin-2-yl)ethyl]amino}-3-(trifluoromethyl)phenyl]-3,6-dihydro-2H-1,3,4-oxadiazin-2-one] | > 100 nM
CN(C)C(=O)CNc1ccc(C2=NNC(=O)OC2)cc1C(F)(F)F [Example 307, N,N-dimethyl-N^2-[4-(2-oxo-3,6-dihydro-2H-1,3,4-oxadiazin-5-yl)-2-(trifluoromethyl)phenyl]glycinamide] | > 100 nM
CN(C)C1CCN(c2ccc(C3=NNC(=O)OC3)cc2C(F)(F)F)C1 (stereo not drawn) [Example 310, 5-{4-[3-(dimethylamino)pyrrolidin-1-yl]-3-(trifluoromethyl)phenyl}-3,6-dihydro-2H-1,3,4-oxadiazin-2-one] | > 100 nM
CCN(CCC#N)c1ccc(C2=NNC(=O)OC2)cc1C(F)(F)F [Example 314, 3-{ethyl[4-(2-oxo-3,6-dihydro-2H-1,3,4-oxadiazin-5-yl)-2-(trifluoromethyl)phenyl]amino}propanenitrile] | > 100 nM
O=C1NN=C(c2ccc(NCc3cccnn3)c(C(F)(F)F)c2)CO1 [Example 308, 5-[4-{[(pyridazin-3-yl)methyl]amino}-3-(trifluoromethyl)phenyl]-3,6-dihydro-2H-1,3,4-oxadiazin-2-one] | > 100 nM
CN1CC(CNc2ccc(C3=NNC(=O)OC3)cc2C(F)(F)F)CC1=O (stereo not drawn) [Example 305, 5-[4-{[(1-methyl-5-oxopyrrolidin-3-yl)methyl]amino}-3-(trifluoromethyl)phenyl]-3,6-dihydro-2H-1,3,4-oxadiazin-2-one] | > 100 nM
CNC(=O)CCNc1ccc(C2=NNC(=O)OC2)cc1C(F)(F)F [Example 303, N-methyl-N^3-[4-(2-oxo-3,6-dihydro-2H-1,3,4-oxadiazin-5-yl)-2-(trifluoromethyl)phenyl]-beta-alaninamide] | > 100 nM
O=C1NN=C(c2ccc(NCCCn3cnnc3)c(C(F)(F)F)c2)CO1 [Example 312, 5-[4-{[3-(4H-1,2,4-triazol-4-yl)propyl]amino}-3-(trifluoromethyl)phenyl]-3,6-dihydro-2H-1,3,4-oxadiazin-2-one] | > 100 nM
CNC(=O)C1CCCN1c1ccc(C2=NNC(=O)OC2)cc1C(F)(F)F (stereo not drawn) [Example 304, N-methyl-1-[4-(2-oxo-3,6-dihydro-2H-1,3,4-oxadiazin-5-yl)-2-(trifluoromethyl)phenyl]prolinamide] | > 100 nM

Further lines, results first:

IC50 | Structure (SMILES)
> 100 nM | CCNC(=O)CNc1ccc(C2=NNC(=O)OC2)cc1C(F)(F)F [Example 306, ethyl-N^2-[4-(2-oxo-3,6-dihydro-2H-1,3,4-oxadiazin-5-yl)-2-(trifluoromethyl)phenyl]glycinamide]
23 nM | NC(=O)C1CN(c2ccc(C3=NNC(=O)OC3)cc2C(F)(F)F)C1 [Example 287, 1-[4-(2-oxo-3,6-dihydro-2H-1,3,4-oxadiazin-5-yl)-2-(trifluoromethyl)phenyl]azetidine-3-carboxamide]
23 nM | Cn1ccc(CNc2ccc(C3=NNC(=O)OC3)cc2C(F)(F)F)n1 [Example 286, 5-[4-{[(1-methyl-1H-pyrazol-3-yl)methyl]amino}-3-(trifluoromethyl)phenyl]-3,6-dihydro-2H-1,3,4-oxadiazin-2-one]
45 nM | O=C1NN=C(c2ccc(NCC3CCOCC3)c(C(F)(F)F)c2)CO1 [Example 294, 5-[4-{[(oxan-4-yl)methyl]amino}-3-(trifluoromethyl)phenyl]-3,6-dihydro-2H-1,3,4-oxadiazin-2-one]
26 nM | CN(c1ccc(C2=NNC(=O)OC2)cc1C(F)(F)F)C1CCC(O)CC1 (stereo not drawn) [Example 289, 5-{4-[(4-hydroxycyclohexyl)(methyl)amino]-3-(trifluoromethyl)phenyl}-3,6-dihydro-2H-1,3,4-oxadiazin-2-one]
35 nM | O=C1NN=C(c2ccc(NCCc3cnc[nH]3)c(C(F)(F)F)c2)CO1 [Example 291, 5-[4-{[2-(1H-imidazol-5-yl)ethyl]amino}-3-(trifluoromethyl)phenyl]-3,6-dihydro-2H-1,3,4-oxadiazin-2-one]
59 nM | O=C1NN=C(c2ccc(NC(C3CC3)C3CC3)c(C(F)(F)F)c2)CO1 [Example 296, 5-{4-[(dicyclopropylmethyl)amino]-3-(trifluoromethyl)phenyl}-3,6-dihydro-2H-1,3,4-oxadiazin-2-one]
26 nM | O=C1NN=C(c2ccc(NCc3cccnc3)c(C(F)(F)F)c2)CO1 [Example 288, 5-[4-{[(pyridin-3-yl)methyl]amino}-3-(trifluoromethyl)phenyl]-3,6-dihydro-2H-1,3,4-oxadiazin-2-one]
14 nM | O=C1NN=C(c2ccc(N3CCC4(CCOC4)C3)c(C(F)(F)F)c2)CO1 (stereo not drawn) [Example 284, 5-[4-(2-oxa-7-azaspiro[4.4]nonan-7-yl)-3-(trifluoromethyl)phenyl]-3,6-dihydro-2H-1,3,4-oxadiazin-2-one]
47 nM | Cn1ccnc1CNc1ccc(C2=NNC(=O)OC2)cc1C(F)(F)F [Example 295, 5-[4-{[(1-methyl-1H-imidazol-2-yl)methyl]amino}-3-(trifluoromethyl)phenyl]-3,6-dihydro-2H-1,3,4-oxadiazin-2-one]
59 nM | O=C1NN=C(c2ccc(NCCn3ccnn3)c(C(F)(F)F)c2)CO1 [Example 297, 5-[4-{[2-(1H-1,2,3-triazol-1-yl)ethyl]amino}-3-(trifluoromethyl)phenyl]-3,6-dihydro-2H-1,3,4-oxadiazin-2-one]
43 nM | C[C@@H](O)[C@@H](CO)Nc1ccc(C2=NNC(=O)OC2)cc1C(F)(F)F [Example 292, 5-[4-{[(2R,3R)-1,3-dihydroxybutan-2-yl]amino}-3-(trifluoromethyl)phenyl]-3,6-dihydro-2H-1,3,4-oxadiazin-2-one]
13 nM | O=C1NN=C(c2ccc(NCCCn3ccnc3)c(C(F)(F)F)c2)CO1 [Example 282, 5-[4-{[3-(1H-imidazol-1-yl)propyl]amino}-3-(trifluoromethyl)phenyl]-3,6-dihydro-2H-1,3,4-oxadiazin-2-one]
90 nM | Cn1cc(CNc2ccc(C3=NNC(=O)OC3)cc2C(F)(F)F)cn1 [Example 300, 5-[4-{[(1-methyl-1H-pyrazol-4-yl)methyl]amino}-3-(trifluoromethyl)phenyl]-3,6-dihydro-2H-1,3,4-oxadiazin-2-one]
69 nM | O=C1NN=C(c2ccc(NCc3cncnc3)c(C(F)(F)F)c2)CO1 [Example 299, 5-[4-{[(pyrimidin-5-yl)methyl]amino}-3-(trifluoromethyl)phenyl]-3,6-dihydro-2H-1,3,4-oxadiazin-2-one]
